# Assay results as given in patent publication US8557816B2, “Aurora kinase modulators and method of use” (Amgen Inc., priority 2007, dated 2013).
# How the values were obtained:
# AuroraA-TPX2 = molecular target: T1, AuroraA-TPX2 (Homo sapiens, UniProt O14965); assay: AuroraA-TPX2 Homogeneous Time Resolved Fluorescent (HTRF) kinase assay; assay type: biochemical; settings: average; read-out: AurA_IC50_IP (uM Avg)
# T1 construct: 20 μL of AuroraA-TPX2 KD GST for a final volume of about 41 μL; GST
# T1 sequence (O14965 133-383 limits assumed): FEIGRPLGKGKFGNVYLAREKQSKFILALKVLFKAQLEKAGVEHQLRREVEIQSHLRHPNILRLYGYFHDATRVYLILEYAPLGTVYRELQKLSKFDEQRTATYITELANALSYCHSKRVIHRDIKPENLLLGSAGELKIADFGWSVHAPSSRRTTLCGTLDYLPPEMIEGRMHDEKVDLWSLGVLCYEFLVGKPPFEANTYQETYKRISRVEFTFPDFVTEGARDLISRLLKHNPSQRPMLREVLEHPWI
# T1 sequence (Q9ULW0 1-43 partner limits assumed): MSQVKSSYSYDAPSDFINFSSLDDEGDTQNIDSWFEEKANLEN
# Protocol: AuroraA-TPX2-Homogeneous Time Resolved Fluorescent (HTRF) Kinase Assay:
# The Aurora-A HTRF assay begins with Aurora-A in the presence of ATP phosphorylating the biotinylated peptide PLK. The reaction incubates for about 120 min. Detection reagents are added to quench the reaction. These agents stop the reaction by diluting out the enzyme and chelating the metals due to the presence of EDTA. After addition, the assay is incubated overnight to allow the detection reagents to equilibrate.
# The AuroraA HTRF assay comprises 1 μL of compound in 100% DMSO, 20 μL of ATP and biotinylated PLK, and 20 μL of AuroraA-TPX2 KD GST for a final volume of about 41 μL. The final concentration of PLK is about 1 μM. […] Buffer conditions are as follows: 60 mM HEPES pH 7.5, 25 mM NaCl, 10 mM MgCl, 2 mM DTT, 0.05% BSA.
# (§1) The assay is quenched and stopped with 160 μL of detection reagent. Detection reagents are as follows: Buffer made of 50 mM Tris, pH 7.5, 100 mM NaCl, 3 mM EDTA, 0.05% BSA, 0.1% Tween20. Added to this buffer prior to reading is Steptavidin allophycocyanin (SA-APC) at a final conc in the assay of 0.0005 mg/mL, and europilated anti-phosphoPLK Ab (Eu-anti-PLK) at a final conc of 0.02 nM.
# The assay plate is read in either a Discovery or a RubyStar. The eu-anti-PLK is excited at 320 nm and emits at 615 nm to excite the SA-APC which in turn emits at 655 nm.
# AuroraB = molecular target: T2, AuroraB (Homo sapiens, UniProt Q96GD4); assay: AuroraB Homogeneous Time Resolved Fluorescent (HTRF) kinase assay; assay type: biochemical; settings: average; read-out: AurB_IC50_IP (uM Avg)
# T2 construct: 20 μL of AuroraB FL H is for a final volume of 41 μL; His
# Protocol: AuroraB-Homogeneous Time Resolved Fluorescent (HTRF) Kinase Assay:
# The AuroraB HTRF assay begins with AuroraB in the presence of ATP phosphorylating the biotinylated peptide Histone H3. The reaction incubates for about 90 min. the reaction is quenched by addition of detection reagents, which stop the reaction by diluting out the enzyme and chelating the metals due to the presence of EDTA. After addition, the assay is incubated for about 60 min to allow detection reagents to equilibrate.
# The AuroraB HTRF assay comprises 1 μL of compound in 100% DMSO, 20 μL of ATP and biotinylated Histone H3, and 20 μL of AuroraB FL H is for a final volume of 41 μL. The final concentration of Histone H3 is 0.1 μM. […] Buffer conditions are as follows: 50 mM HEPES pH 7.5, 5 mM NaCl, 0.5 mM MgCl, 0.5 mM MnCl, 2 mM DTT, 0.05% BSA.
# as §1, with “0.001” for “0.0005”, “anti-phosphoHistoneH3” for “anti-phosphoPLK”, “(Eu-anti-HisH3)” for “(Eu-anti-PLK)”, “0.064” for “0.02”
# The assay plate is read in either a Discovery or a RubyStar. The eu-anti-HisH3 is excited at 320 nm and emits at 615 nm to excite the SA-APC which in turn emits at 655 nm.
# T2 sequence (Q96GD4 whole entry): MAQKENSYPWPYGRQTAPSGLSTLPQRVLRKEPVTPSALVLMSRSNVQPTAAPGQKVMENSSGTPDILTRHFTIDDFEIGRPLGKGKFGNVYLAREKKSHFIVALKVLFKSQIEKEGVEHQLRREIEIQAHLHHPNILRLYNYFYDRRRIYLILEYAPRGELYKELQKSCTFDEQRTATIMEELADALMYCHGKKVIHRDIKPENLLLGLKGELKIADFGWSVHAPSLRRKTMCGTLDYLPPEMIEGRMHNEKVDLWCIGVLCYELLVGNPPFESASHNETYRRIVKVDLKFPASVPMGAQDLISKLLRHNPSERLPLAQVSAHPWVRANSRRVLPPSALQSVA
Structure (SMILES),IC50 (AuroraA-TPX2),IC50 (AuroraB)
"COc1cnc2c(Oc3ccc(Nc4nnc(-c5ncc(C)s5)c5ccccc45)cc3)ccnc2c1 [compound 189, N-(4-((7-(methyloxy)-1,5-naphthyridin-4-yl)oxy)phenyl)-4-(5-methyl-1,3-thiazol-2-yl)-1-phthalazinamine]",0.022 µM,0.009 µM
"Cc1csc(-c2nnc(Nc3ccc(Oc4ccnc5cc(C#N)ccc45)cc3)c3ccccc23)n1 [compound 86, 4-((4-((4-(4-methyl-1,3-thiazol-2-yl)-1-phthalazinyl)amino)phenyl)oxy)-7-quinolinecarbonitrile]",0.031 µM,0.014 µM
COc1cnc2c(Sc3ccc(Nc4nnc(-c5cscn5)c5ccccc45)cc3)ccnc2c1 [compound 506],0.748 µM,0.089 µM
"COc1cccc(-c2nnc(Nc3ccc(Oc4ccnc5cc(-c6cncn6C)sc45)cc3)c3ccccc23)n1 [compound 240, N-(4-((2-(1-methyl-1H-imidazol-5-yl)thieno[3,2-b]pyridin-7-yl)oxy)phenyl)-4-(6-(methyloxy)-2-pyridinyl)-1-phthalazinamine]",0.006 µM,0.001 µM
"CCc1cc(N2CCCCC2)nnc1Nc1ccc(Oc2ccnc3cc(OC)cnc23)cc1 [compound 321, 4-ethyl-N-(4-((7-(methyloxy)-1,5-naphthyridin-4-yl)oxy)phenyl)-6-(1-piperidinyl)-3-pyridazinamine]",0.304 µM,0.051 µM
"Cc1csc(-c2nnc(Nc3ccc(Sc4ccnc5cc(C(=O)N6CCOCC6)sc45)cc3)c3ccccc23)c1 [compound 312, (7-(4-(4-(4-methylthiophen-2-yl)phthalazin-1-ylamino)phenylthio)thieno[3,2-b]pyridin-2-yl)(morpholino)methanone]",0.022 µM,0.03 µM
Cc1ccc(-c2nnc(Nc3ccc(Sc4ccnc5ccncc45)cc3)c3ccccc23)nc1 [compound 433],0.056 µM,0.004 µM
"COc1cnc2c(Oc3ccc(Nc4nnc(-c5ccc6c(c5)OC(F)(F)O6)c5ccccc45)cc3)ccnc2c1 [compound 291, 4-(2,2-difluoro-1,3-benzodioxol-5-yl)-N-(4-((7-(methyloxy)-1,5-naphthyridin-4-yl)oxy)phenyl)-1-phthalazinamine]",0.031 µM,0.01 µM
"COc1cc2nccc(Oc3ccc(Nc4nnc(-c5ccc(C)cc5)c5ccccc45)cc3)c2cc1C(N)=O [compound 211, 7-(methyloxy)-4-((4-((4-(4-methylphenyl)-1-phthalazinyl)amino)phenyl)oxy)-6-quinolinecarboxamide]",0.006 µM,0.001 µM
"CCc1cc(-c2ccccc2)nnc1Nc1ccc(Oc2ccnc3cc(OC)cnc23)cc1 [compound 108, 4-ethyl-N-(4-((7-(methyloxy)-1,5-naphthyridin-4-yl)oxy)phenyl)-6-phenyl-3-pyridazinamine]",0.016 µM,0.004 µM
COCCOc1ccc2nccc(Sc3ccc(Nc4nnc(-c5ccc(Cl)cc5)c5ccccc45)cc3)c2c1 [compound 434],0.109 µM,0.109 µM
"Cn1cc(-c2ccc3c(Oc4ccc(Nc5nnc(-c6ccccc6)c6ccccc56)cc4)ccnc3c2)cn1 [compound 338, N-(4-(7-(1-methyl-1H-pyrazol-4-yl)quinolin-4-yloxy)phenyl)-4-phenylphthalazin-1-amine]",0.005 µM,0.009 µM
c1ccc(-c2nnc(Nc3ccc(Sc4ccnc5ccncc45)cc3)c3ccccc23)cc1 [compound 425],0.171 µM,0.003 µM
c1ccc2c(-c3ccc4c(c3)OCO4)nnc(Nc3ccc(Sc4ccnc5ccoc45)cc3)c2c1 [compound 467],0.095 µM,0.01 µM
COc1cnc2c(Oc3ccc(Nc4nnc(-c5ccc(C)c(N)c5)c5cc(F)c(F)cc45)cc3)ccnc2c1 [compound 545],0.085 µM,0.02 µM
CCc1cc(-c2ccc(C)cc2)nnc1Nc1ccc(Nc2ccnc3cc(OC)cnc23)cc1 [compound 595],0.102 µM,0.023 µM
"COc1ccc2nccc(Oc3ccc(Nc4nnc(-c5ccccc5)c5ccccc45)cc3)c2n1 [compound 347, N-(4-(6-methoxy-1,5-naphthyridin-4-yloxy)phenyl)-4-phenylphthalazin-1-amine]",0.067 µM,0.01 µM
"COc1cnc2c(Nc3cnc(Nc4nnc(-c5ccccc5)c5ccccc45)nc3)ccnc2c1 [Example 36, N^5-(7-Methoxy-1,5-naphthyridin-4-yl)-N^2-(4-phenylphthalazin-1-yl)pyrimidine-2,5-diamine]",0.038 µM,0.004 µM
COc1cnc2c(Oc3c(F)cc(Nc4nnc(-c5ccc(Cl)cc5)c5ccccc45)cc3F)ccnc2c1 [compound 454],0.05 µM,0.01 µM
COc1ccc2ncnc(Oc3ccc(Nc4nnc(-c5cc(C)cs5)c5ccccc45)cc3)c2c1 [compound 565],0.686 µM,0.108 µM
"COc1cnc2c(N(C)c3ccc(Nc4nnc(-c5ccccc5)c5ccccc45)cc3)ccnc2c1 [compound 51, N-methyl-N-(7-(methyloxy)-1,5-naphthyridin-4-yl)-N′-(4-phenyl-1-phthalazinyl)-1,4-benzenediamine]",0.86 µM,0.023 µM

# Continued by falling IC50 (AuroraA-TPX2), values first:
IC50 (AuroraA-TPX2),IC50 (AuroraB),Structure (SMILES)
0.341 µM,0.002 µM,Cc1ccc(-c2nnc(Nc3ccc(Sc4ccnc5ccoc45)cc3)c3ccccc23)cn1 [compound 481]
0.218 µM,0.01 µM,Clc1cccc(-c2nnc(Nc3ccc(Sc4ccnc5ccsc45)cc3)c3ccccc23)c1 [compound 518]
0.139 µM,0.018 µM,"COc1cnc2c(Oc3ccc(Nc4nnc(-c5cccc(C#N)c5)c5ccccc45)cc3)ccnc2c1 [Example 29, 3-(4-(4-(7-methoxy-1,5-naphthyridin-4-yloxy)phenylamino)phthalazin-1-yl)benzonitrile]"
0.091 µM,0.018 µM,"COc1cnc2c(Oc3ccc(Nc4nnc(-c5ccc(OC(C)C)cc5)c5ccccc45)cc3)ccnc2c1 [compound 137, 4-(4-((1-methylethyl)oxy)phenyl)-N-(4-((7-(methyloxy)-1,5-naphthyridin-4-yl)oxy)phenyl)-1-phthalazinamine]"
0.058 µM,0.003 µM,Oc1cc(-c2nnc(Nc3ccc(Sc4ccnc5cccnc45)cc3)c3ccccc23)ccc1Cl [compound 452]
0.047 µM,0.005 µM,"CCCc1cc(-c2ccccc2)nnc1Nc1ccc(Oc2ccnc3cc(OC)cnc23)cc1 [compound 156, N-(4-((7-(methyloxy)-1,5-naphthyridin-4-yl)oxy)phenyl)-6-phenyl-4-propyl-3-pyridazinamine]"
0.019 µM,0.004 µM,"COc1ccc(-c2nnc(Nc3ccc(Oc4ccnc5cc(C#N)ccc45)cc3)c3ccccc23)cc1 [compound 141, 4-((4-((4-(4-(methyloxy)phenyl)-1-phthalazinyl)amino)phenyl)oxy)-7-quinolinecarbonitrile]"
0.012 µM,0.004 µM,"Cc1ccc(-c2nnc(Nc3ccc(Oc4ccnc5cc(C#N)ccc45)cc3)c3ccccc23)s1 [compound 162, 4-((4-((4-(5-methyl-2-thienyl)-1-phthalazinyl)amino)phenyl)oxy)-7-quinolinecarbonitrile]"
0.009 µM,0.022 µM,COc1cnc2c(Sc3ccc(Nc4nnc(-c5ccc6c(c5)OCO6)c5ccccc45)cc3F)ccnc2c1 [compound 522]
